Test results published in patent US9255295B2, “Method for evaluating the sensitizing potential of a test compound” (IMMUNOSEARCH, priority 2010, dated 2016).

How the values were obtained:
EPISKIN model = experiment: Sensitizing power: sensitizing potential retested at successive dilutions in the EPISKIN model
[1] = tested on: genes specific for sensitization (BRAK, CTSS, DAPK2, FABP4, HSP27, IL18, HSP90, IL1R2, TPSAB1, CXCR1, DEFB1, DHFR, EHF, IVL, KRT4, MELANA, NGAL, PDZK1IP1, PI3 …); experiment: Expression of the other (non-ARE) sensitization-specific genes in EPISKIN reconstructed skin (quantitative RT-PCR); type: cell-based, human

SMILES: CC=Cc1ccc(O)c(OC)c1 [Isoeugenol]
- sensitizing potential (conclusion) (EPISKIN model; 0.1%): Sensitizing
- sensitizing potential (conclusion) (EPISKIN model; 1%): Sensitizing
- sensitizing potential (conclusion) (EPISKIN model; 10%): Sensitizing
- sensitizing potential (conclusion) (EPISKIN model; 50%): Sensitizing
- sensitizing power (class) (EPISKIN model; from successive dilutions): MODERATE
- BRAK NUMBER OF GENES grade ([1]; 0.1%): 0 (if this expression is lower, the grade is 0)
- CTSS expression compared to control ([1]; 0.1%): 0.9
- CTSS grade (NUMBER OF GENES) ([1]; 0.1%): 0 (if this expression is lower, the grade is 0)
- CXCR1 expression compared to control ([1]; 0.1%): 0.7
- CXCR1 grade (NUMBER OF GENES) ([1]; 0.1%): 0 (if this expression is lower, the grade is 0)
- DAPK2 expression compared to control ([1]; 0.1%): 1.1
- DAPK2 grade (NUMBER OF GENES) ([1]; 0.1%): 0 (if this expression is lower, the grade is 0)
- DEFB1 expression compared to control ([1]; 0.1%): 1.0
- DEFB1 grade (NUMBER OF GENES) ([1]; 0.1%): 0 (if this expression is lower, the grade is 0)
- DHFR NUMBER OF GENES grade ([1]; 0.1%): 0 (if this expression is lower, the grade is 0)
- EHF expression compared to control ([1]; 0.1%): 1.5
- EHF grade (NUMBER OF GENES) ([1]; 0.1%): 1 (If the expression is greater than 1.3 compared to the control, a grade of 11s given)
- FABP4 expression compared to control ([1]; 0.1%): 0.8
- FABP4 grade (NUMBER OF GENES) ([1]; 0.1%): 0 (if this expression is lower, the grade is 0)
- HSP27 expression compared to control ([1]; 0.1%): 1.0
- HSP27 grade (NUMBER OF GENES) ([1]; 0.1%): 0 (if this expression is lower, the grade is 0)
- HSP90 NUMBER OF GENES grade ([1]; 0.1%): 0 (if this expression is lower, the grade is 0)
- IL18 NUMBER OF GENES grade ([1]; 0.1%): 0 (if this expression is lower, the grade is 0)
- IVL expression compared to control ([1]; 0.1%): 1.3
- IVL grade (NUMBER OF GENES) ([1]; 0.1%): 1 (If the expression is greater than 1.3 compared to the control, a grade of 11s given)
- KRT4 NUMBER OF GENES grade ([1]; 0.1%): 0 (if this expression is lower, the grade is 0)
- MELANA NUMBER OF GENES grade ([1]; 0.1%): 0 (if this expression is lower, the grade is 0)
- NGAL expression compared to control ([1]; 0.1%): 1.1
- NGAL grade (NUMBER OF GENES) ([1]; 0.1%): 0 (if this expression is lower, the grade is 0)
- P13 expression compared to control ([1]; 0.1%): 1.1
- P13 grade (NUMBER OF GENES) ([1]; 0.1%): 0 (if this expression is lower, the grade is 0)
- PDZK1iP1 NUMBER OF GENES grade ([1]; 0.1%): 0 (if this expression is lower, the grade is 0)
- SENS >1.3 (number of genes) ([1]; 0.1%): 2
- SERPINB3 NUMBER OF GENES grade ([1]; 0.1%): 0 (if this expression is lower, the grade is 0)
- TOTAL SENS (number of genes) ([1]; 0.1%): 2
- BRAK expression ([1]; 0.1%, compared to the control): 0.6
- DHFR expression ([1]; 0.1%, compared to the control): 0.8
- HSP90 expression ([1]; 0.1%, compared to the control): 0.9
- IL18 expression ([1]; 0.1%, compared to the control): 0.6
- KRT4 expression ([1]; 0.1%, compared to the control): 1.2
- MELANA expression ([1]; 0.1%, compared to the control): 0.9
- PDZK1iP1 expression ([1]; 0.1%, compared to the control): 1.0
- SERPINB3 expression ([1]; 0.1%, compared to the control): 1.2
- BRAK NUMBER OF GENES grade ([1]; 1%): 0 (if this expression is lower, the grade is 0)
- CTSS expression compared to control ([1]; 1%): 0.8
- CTSS grade (NUMBER OF GENES) ([1]; 1%): 0 (if this expression is lower, the grade is 0)
- CXCR1 expression compared to control ([1]; 1%): 1.1
- CXCR1 grade (NUMBER OF GENES) ([1]; 1%): 0 (if this expression is lower, the grade is 0)
- DAPK2 expression compared to control ([1]; 1%): 0.9
- DAPK2 grade (NUMBER OF GENES) ([1]; 1%): 0 (if this expression is lower, the grade is 0)
- DEFB1 expression compared to control ([1]; 1%): 1.1
- DEFB1 grade (NUMBER OF GENES) ([1]; 1%): 0 (if this expression is lower, the grade is 0)
- DHFR NUMBER OF GENES grade ([1]; 1%): 0 (if this expression is lower, the grade is 0)
- EHF expression compared to control ([1]; 1%): 1.2
- EHF grade (NUMBER OF GENES) ([1]; 1%): 0 (if this expression is lower, the grade is 0)
- FABP4 expression compared to control ([1]; 1%): 0.9
- FABP4 grade (NUMBER OF GENES) ([1]; 1%): 0 (if this expression is lower, the grade is 0)
- HSP27 expression compared to control ([1]; 1%): 0.8
- HSP27 grade (NUMBER OF GENES) ([1]; 1%): 0 (if this expression is lower, the grade is 0)
- HSP90 NUMBER OF GENES grade ([1]; 1%): 1 (If the expression is greater than 1.3 compared to the control, a grade of 11s given)
- IL18 NUMBER OF GENES grade ([1]; 1%): 0 (if this expression is lower, the grade is 0)
- IVL expression compared to control ([1]; 1%): 1.4
- IVL grade (NUMBER OF GENES) ([1]; 1%): 1 (If the expression is greater than 1.3 compared to the control, a grade of 11s given)
- KRT4 NUMBER OF GENES grade ([1]; 1%): 0 (if this expression is lower, the grade is 0)
- MELANA NUMBER OF GENES grade ([1]; 1%): 1 (If the expression is greater than 1.3 compared to the control, a grade of 11s given)
- NGAL expression compared to control ([1]; 1%): 1.1
- NGAL grade (NUMBER OF GENES) ([1]; 1%): 0 (if this expression is lower, the grade is 0)
- P13 expression compared to control ([1]; 1%): 0.9
- P13 grade (NUMBER OF GENES) ([1]; 1%): 0 (if this expression is lower, the grade is 0)
- PDZK1iP1 NUMBER OF GENES grade ([1]; 1%): 0 (if this expression is lower, the grade is 0)
- SENS >1.3 (number of genes) ([1]; 1%): 5
- SERPINB3 NUMBER OF GENES grade ([1]; 1%): 0 (if this expression is lower, the grade is 0)
- TOTAL SENS (number of genes) ([1]; 1%): 5
- BRAK expression ([1]; 1%, compared to the control): 0.9
- DHFR expression ([1]; 1%, compared to the control): 0.9
- HSP90 expression ([1]; 1%, compared to the control): 1.3
- IL18 expression ([1]; 1%, compared to the control): 1.1
- KRT4 expression ([1]; 1%, compared to the control): 0.8
